Reference: PubChem BioAssay AID651569 (Sanford-Burnham Center for Chemical Genomics, 2012)
Calls of active or inactive are those of the source. How the calls were made is not given here.

Test system: luminescent cytotoxicity (cell viability) counter-screen
Assay: cytotoxicity of Gli-SUFU antagonist hits, dose response, cytotoxicity control for Gli-SUFU antagonist project, cell-based, luminescence, uHTS hits (AID 651569);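 further: compound exposure lasted overnight before the viability readout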

Row | SMILES | IC50
1 | CCCCc1ccc(NC(=O)C(=O)NCCN2CCN(Cc3ccc([N+](=O)[O-])cc3)CC2)cc1 | > 20 µM (inactive)
2 | CCCCn1c(CN(C)Cc2ccccc2)nc2c1c(=O)n(C)c(=O)n2C | > 20 µM (inactive)
3 | Cc1sc2ncnc(NCC(C)(C)N3CCOCC3)c2c1C | > 20 µM (inactive)
4 | CC(Sc1nc2ccccc2c(=O)n1C)C(=O)N(C)C1CCCCC1 (stereo not given) | > 20 µM (inactive)
5 | CC(C)(C)OC(=O)N1CCC(c2cc(-c3cccs3)n[nH]2)CC1 | > 20 µM (inactive)
6 | CCC(C(=O)NCCC(C)C)n1ccc2cc(S(=O)(=O)N3CCCCC3)ccc21 (stereo not given) | > 20 µM (inactive)
7 | Brc1ccc(-c2c[n+]3c(n2-c2ccccc2)SCC3)cc1 | > 20 µM (inactive)
8 | Cc1cc(/C=C2/SC(=S)N(c3ccc([N+](=O)[O-])cc3)C2=O)c(C)n1-c1cccnc1 | > 20 µM (inactive)
9 | CC(=O)c1ccc(N2CCN(c3ccc(C(F)(F)F)cn3)CC2)cc1 | > 20 µM (inactive)
10 | COCCNC(=O)CSCc1nc(-c2ccc(SC)cc2)oc1C | > 20 µM (inactive)
11 | CC(=O)c1c(C)[nH]c(C(=O)OCC(=O)Nc2cccc(S(=O)(=O)N3CCCC3)c2)c1C | > 20 µM (inactive)
12 | CCCOc1ccccc1N/C(=N/c1nc(C)cc(C)n1)NC(=O)COc1ccc(OC)cc1 | > 20 µM (inactive)
13 | C[n+]1c2n(c3ccccc31)N=C(c1ccccc1)CS2 | > 20 µM (inactive)
14 | COc1cccc2nc3c(C(=O)NCCN(C)C)cccc3cc12 | 10.6 µM
15 | Cc1cccnc1CN1CCN(C(=O)c2cc(COc3ccc4ncccc4c3)on2)CC1 | > 20 µM (inactive)
16 | CC(Sc1nc2ccccc2c(=O)n1C)C(=O)NC1CCCCC1C (stereo not given) | 16.7 µM
17 | CN1/C(=C\C(=O)COC(=O)CNC(=O)c2ccc3ccccc3c2)C(C)(C)c2ccccc21 | > 20 µM (inactive)
18 | Cc1cc(/C=N/n2cnnc2)c(C)n1-c1ccc(OCc2ccccc2F)cc1 | 16.3 µM
19 | Clc1ccc(-c2cn(-c3ccc(Cl)cc3)c3[n+]2CCCCC3)cc1 | > 20 µM (inactive)
20 | CCCN1CCC(=O)N([C@H](CSc2ccc(OC)cc2)Cc2ccccc2)CC1 | > 20 µM (inactive)
21 | COc1ccc(NC(=S)N2CCC(Cc3ccccc3)CC2)cc1 | > 20 µM (inactive)
22 | C=C(C)CSc1nc2sc3c(c2c(=O)n1C1CCCCC1)CCN(C)C3 | > 20 µM (inactive)
23 | O=C(Nc1ccccc1)C1=C[C@H](C2CCCCC2)C[C@H](OCCCCO)O1 | > 20 µM (inactive)
24 | COc1cc(NS(=O)(=O)c2ccc(C)cc2C)cc(OC)c1OC | 16 µM
25 | O=C(N[C@@H]1C/C=C\C[C@@H](CC(=O)N(CCO)Cc2ccccc2)C(=O)NC[C@H](c2ccccc2)OC1=O)OCC1c2ccccc2-c2ccccc21 | > 20 µM (inactive)
26 | C[n+]1c2n(c3ccccc31)N=C(c1ccc(-c3ccccc3)cc1)CS2 | > 20 µM (inactive)
27 | COCCOc1nc2c(c(=O)n(C)c(=O)n2C)n1Cc1cccc(OC)c1 | > 20 µM (inactive)

Row | SMILES | IC50
28 | O=c1c2ccccc2nc2n1C(CSCc1cccc(C(F)(F)F)c1)CS2 (stereo not given) | > 20 µM (inactive)
29 | CC(C)(C)OC(=O)NCCCCCc1cn(CC(=O)NCCCCCCCCCCC(=O)N2CCN(C(=O)OC(C)(C)C)CC2)nn1 | > 20 µM (inactive)
30 | C=CCOc1nc2c(c(=O)n(C)c(=O)n2C)n1Cc1ccc(Cl)cc1Cl | > 20 µM (inactive)
31 | O=C(c1cc2sccc2n1Cc1ccccc1)N1CCN(c2nc3ccccc3s2)CC1 | > 20 µM (inactive)
32 | COc1ccccc1CCNC(=O)C(=O)NCCC1CCCCN1S(=O)(=O)c1cccs1 (stereo not given) | 13.1 µM
33 | CC(C)CCOC(=O)C[N+](C)(C)CCOC1CC2CCC1(C)C2(C)C (stereo not given) | > 20 µM (inactive)
34 | CCC(=O)c1ccc(OCC(O)Cn2c(C)nc3ccccc32)cc1 (stereo not given) | > 20 µM (inactive)
35 | O=C(N[C@@H]1C/C=C\C[C@@H](CC(=O)N(CCO)Cc2ccccc2)C(=O)NCCOC1=O)OCC1c2ccccc2-c2ccccc21 | > 20 µM (inactive)
36 | CC(=O)c1cccc(NS(=O)(=O)c2ccc(-c3cnc(C4CC4)o3)cc2)c1 | 6.78 µM
37 | Cc1cc(-c2ccccc2)cc(-c2ccccc2)[n+]1C | > 20 µM (inactive)
38 | Cc1ccc2c(c1)S/C(=C/c1ccc[n+](C)c1)N2CCO | > 20 µM (inactive)
39 | O=C(N/N=C/c1cc2ccccc2nc1Cl)[C@H]1C[C@@H]1c1ccccc1 | > 20 µM (inactive)
40 | COc1ccc(CNc2ncnc3c2[nH]c2ccccc23)cc1 | > 20 µM (inactive)
41 | CCC(C)[C@H]1CN=C(N)N1CCc1cccc2ccccc12 (stereo not given in full) | > 20 µM (inactive)
42 | C/C(=N\NC(=O)C(=O)Nc1ccc(C)c(Cl)c1)c1ccncc1 | > 20 µM (inactive)
43 | CC(C)(C)[C@H]1COC(=O)[C@H](NC(=O)OCC2c3ccccc3-c3ccccc32)C/C=C\C[C@@H](CC(=O)N(CCO)Cc2ccccc2)C(=O)N1 | > 20 µM (inactive)
44 | CCN(CC)C(=O)c1ccc(S(=O)(=O)N2CCC(c3nc4ccccc4s3)CC2)cc1 | > 20 µM (inactive)
45 | COc1ccc(CN(C)Cc2nc(Cc3cccc(F)c3)no2)c2cccnc12 | > 20 µM (inactive)
46 | O=C(C[C@H]1C/C=C\C[C@@H](NC(=O)OCC2c3ccccc3-c3ccccc32)C(=O)O[C@@H](c2ccccc2)CNC1=O)N[C@H](CO)Cc1ccccc1 | > 20 µM (inactive)
47 | Cc1cccc(CCN2C(N(C)C)=NC[C@@H]2CC(C)C)c1 | 18.2 µM
48 | CN1/C(=C\C=N\NC(=O)c2ccc(O)cc2)C(C)(C)c2ccccc21 | 4.84 µM
49 | O=C(Nc1ccc(C(F)(F)F)cc1)C1CCN(S(=O)(=O)c2ccc(N3CCCC3=O)cc2)CC1 | > 20 µM (inactive)
50 | Cc1ccc(-c2csc(NC(=O)c3c(C)noc3C)n2)s1 | > 20 µM (inactive)
51 | COc1ccc(-c2nn(-c3ccccc3)cc2/C=N/NC(=O)c2ccc(Br)o2)cc1 | > 20 µM (inactive)
52 | Cc1sc2ncnc(NCc3cccs3)c2c1C | > 20 µM (inactive)
53 | COc1ccc(-c2noc(CCCCC(=O)N3CCN(c4cc(C)ccc4C)CC3)n2)cc1 | > 20 µM (inactive)
54 | CC(C)=CCC/C(C)=C/CNC(=O)C[C@H]1C[C@H](C(=O)N2CCOCC2)[C@@]2(C)c3[nH]c4cc(CCC(=O)N(C)C)ccc4c3CCN2C1=O | > 20 µM (inactive)

Row | SMILES | IC50
55 | CC(C)(C)[C@H]1COC(=O)[C@H](NC(=O)OCC2c3ccccc3-c3ccccc32)C/C=C\C[C@@H](CC(=O)N[C@@H](CO)Cc2ccccc2)C(=O)N1 | > 20 µM (inactive)
56 | O=C(NC(c1cccnc1)C(F)(F)F)c1cc(COc2ccc3c(c2)CCCC3)on1 (stereo not given) | > 20 µM (inactive)
57 | Cc1c(C(C)C)c(=O)n(-c2ccc(S(=O)(=O)NC3CCCCC3)cc2)n1C | 9.32 µM
58 | COc1ccc(CN2CCC(C(=O)Nc3ccc(Oc4cccnc4)cc3)CC2)c(C)c1C | 19.5 µM
59 | Cc1nn(Cc2noc(C(=O)NC3CCC(C)CC3)n2)c(C)c1Br (stereo not given) | > 20 µM (inactive)
60 | COc1ccc(CNCC(O)COc2cccc3c2OC(C)(C)C3)cc1 (stereo not given) | > 20 µM (inactive)
61 | CCn1c(C)nc2cc(-c3nnc(-c4c(-c5ccccc5)noc4C)o3)ccc21 | > 20 µM (inactive)
62 | CCOC(=O)CC1CCCCN1C(=O)c1cc(COc2cccc3cnccc23)on1 (stereo not given) | > 20 µM (inactive)
63 | COc1ccc(NS(=O)(=O)c2ccc(NC(C)=O)cc2)cc1OC | > 20 µM (inactive)
64 | C=CCOC(=O)c1[nH]c2c(c1C)C(=O)CC(c1cc(OC)c(OC)c(OC)c1)C2 (stereo not given) | > 20 µM (inactive)
65 | CC(C)CC(NC(=O)CCCNC(=O)CCC(=O)OC1O[C@H]2OC3(C)CC[C@H]4[C@H](C)CCC(C1C)C24OO3)C(=O)O (stereo not given in full) | > 20 µM (inactive)
66 | CCOc1ccc(-c2cc(C)[n+](CCO)c(-c3ccc(OCC)cc3)c2)cc1 | > 20 µM (inactive)
67 | Cc1nc2ncccn2c1-c1csc(Nc2ccc(O)cc2)n1 | > 20 µM (inactive)
68 | CCOC(=O)N1CCN(C(=O)c2ccc(CSc3ccc(Cl)cc3)cc2)CC1 | > 20 µM (inactive)
69 | Cn1nc(CC(=O)NCc2ccc(C(F)(F)F)cc2)c2ccccc2c1=O | > 20 µM (inactive)
70 | C[N+]1(CC(=O)OC2CCCCCCCCCCC2)CCCC1 | > 20 µM (inactive)
71 | Cc1nc2ccccc2c2oc(C(=O)N3CCN(C4CCCCC4)CC3)cc12 | > 20 µM (inactive)
72 | CCCCNc1c(-c2ccc(OC)c(Sc3ccc(OC)cc3)c2)nc2ccccn12 | 12.9 µM
73 | CC(C)(C)c1ccc(CN2C3=NCCCN3c3ccccc32)cc1 | 19.1 µM
74 | O=C(C[n+]1cc(-c2ccccc2)n2c1CCCCC2)c1ccc(Cl)cc1 | > 20 µM (inactive)
75 | Cn1c(=O)c2c(nc(NCCOc3ccc(C(C)(C)C)cc3)n2C)n(C)c1=O | > 20 µM (inactive)
76 | COc1cc(C(=O)NC2CCN(C)CC2)ccc1Nc1ncc2c(n1)N(Cc1ccccc1)CCC(=O)N2C | > 20 µM (inactive)
77 | COc1ccc(CC(=O)Nc2cccc(S(=O)(=O)N3CCCCCC3)c2)cc1OC | > 20 µM (inactive)
78 | CCN1CCCC1CNc1ncnc2c1[nH]c1ccc(Cl)cc12 (stereo not given) | > 20 µM (inactive)
79 | Cc1nnsc1C(=O)NC1CCCc2c1cnn2-c1ccc(F)cc1F (stereo not given) | > 20 µM (inactive)
80 | CC(=O)N1c2ccc(S(=O)(=O)N3CCC(C(=O)N4CCCCC4)CC3)cc2CC1C (stereo not given) | > 20 µM (inactive)
